{"source": "paper PMC6437697", "about": "(Journal of Medicinal Chemistry, 2019)", "assay_in_all_cases": "KINOMEscan", "assay_type_in_all_cases": "binding", "details_in_all_cases": "read-out: % control activity remaining", "key": {"SRC": {"molecular_target": "T1, SRC (Homo sapiens, UniProt P12931)", "T1 construct": "purchased Eurofins DiscoverX KINOMEscan"}, "CLK2": {"molecular_target": "T2, CLK2 (Homo sapiens, UniProt P49760)", "T2 construct": "purchased Eurofins DiscoverX KINOMEscan"}, "GCN2(Kin.Dom.2,S808G)": {"molecular_target": "T3, GCN2(Kin.Dom.2,S808G) (Homo sapiens, UniProt Q9P2K8, S808G)", "T3 construct": "GCN2(Kin.Dom.2,S808G); purchased Eurofins DiscoverX KINOMEscan", "T3 sequence (Q9P2K8 590-1001 S808G limits assumed)": "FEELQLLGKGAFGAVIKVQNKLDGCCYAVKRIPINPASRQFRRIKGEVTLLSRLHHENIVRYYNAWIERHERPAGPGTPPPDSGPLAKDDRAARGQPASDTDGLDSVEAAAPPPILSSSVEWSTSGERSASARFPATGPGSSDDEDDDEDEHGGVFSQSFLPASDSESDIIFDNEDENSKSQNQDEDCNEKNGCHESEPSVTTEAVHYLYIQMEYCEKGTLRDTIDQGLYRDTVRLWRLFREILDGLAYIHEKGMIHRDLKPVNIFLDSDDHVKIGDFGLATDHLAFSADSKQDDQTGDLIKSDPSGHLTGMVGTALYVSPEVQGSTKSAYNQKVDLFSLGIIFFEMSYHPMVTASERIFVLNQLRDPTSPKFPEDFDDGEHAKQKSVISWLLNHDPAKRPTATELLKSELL"}, "GRK1": {"molecular_target": "T4, GRK1 (Homo sapiens, UniProt Q15835)", "T4 construct": "purchased Eurofins DiscoverX KINOMEscan", "T4 sequence (Q15835 1-563)": "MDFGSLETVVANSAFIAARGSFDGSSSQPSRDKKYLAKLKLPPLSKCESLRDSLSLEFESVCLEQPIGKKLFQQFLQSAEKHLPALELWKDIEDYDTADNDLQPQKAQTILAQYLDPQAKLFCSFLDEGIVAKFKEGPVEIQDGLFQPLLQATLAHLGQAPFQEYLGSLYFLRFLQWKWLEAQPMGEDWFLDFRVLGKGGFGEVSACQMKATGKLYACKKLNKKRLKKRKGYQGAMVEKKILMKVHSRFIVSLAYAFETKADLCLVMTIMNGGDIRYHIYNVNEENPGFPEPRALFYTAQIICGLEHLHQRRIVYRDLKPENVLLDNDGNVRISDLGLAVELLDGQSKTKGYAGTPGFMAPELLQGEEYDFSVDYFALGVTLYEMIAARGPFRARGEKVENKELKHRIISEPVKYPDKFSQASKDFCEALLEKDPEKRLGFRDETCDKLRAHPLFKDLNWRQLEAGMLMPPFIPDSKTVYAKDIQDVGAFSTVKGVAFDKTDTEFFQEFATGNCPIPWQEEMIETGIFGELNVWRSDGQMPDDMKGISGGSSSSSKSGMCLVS"}, "PRKCD": {"molecular_target": "T5, PRKCD (Homo sapiens, UniProt Q05655)", "T5 construct": "purchased Eurofins DiscoverX KINOMEscan"}, "[1]": {"molecular_target": "T6, EGFR(L747-E749del, A750P) (Homo sapiens, UniProt P00533, A750P/DEL747-749)", "T6 construct": "purchased Eurofins DiscoverX KINOMEscan", "T6 sequence (P00533 with tags, fused parts or gaps A750P/DEL747-749 limits assumed)": "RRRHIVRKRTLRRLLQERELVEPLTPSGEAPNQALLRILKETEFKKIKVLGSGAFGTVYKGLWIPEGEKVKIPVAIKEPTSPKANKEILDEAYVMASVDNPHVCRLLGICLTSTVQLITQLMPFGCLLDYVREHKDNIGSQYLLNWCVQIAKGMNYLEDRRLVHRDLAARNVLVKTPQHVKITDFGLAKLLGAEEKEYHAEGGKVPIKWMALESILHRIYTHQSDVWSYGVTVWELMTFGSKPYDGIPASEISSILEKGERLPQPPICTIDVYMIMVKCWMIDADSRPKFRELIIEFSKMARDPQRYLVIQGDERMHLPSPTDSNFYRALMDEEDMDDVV"}, "PIP5K2C": {"molecular_target": "T7, PIP5K2C (Homo sapiens, UniProt Q8TBX8)", "T7 construct": "purchased Eurofins DiscoverX KINOMEscan", "T7 sequence (Q8TBX8 1-421)": "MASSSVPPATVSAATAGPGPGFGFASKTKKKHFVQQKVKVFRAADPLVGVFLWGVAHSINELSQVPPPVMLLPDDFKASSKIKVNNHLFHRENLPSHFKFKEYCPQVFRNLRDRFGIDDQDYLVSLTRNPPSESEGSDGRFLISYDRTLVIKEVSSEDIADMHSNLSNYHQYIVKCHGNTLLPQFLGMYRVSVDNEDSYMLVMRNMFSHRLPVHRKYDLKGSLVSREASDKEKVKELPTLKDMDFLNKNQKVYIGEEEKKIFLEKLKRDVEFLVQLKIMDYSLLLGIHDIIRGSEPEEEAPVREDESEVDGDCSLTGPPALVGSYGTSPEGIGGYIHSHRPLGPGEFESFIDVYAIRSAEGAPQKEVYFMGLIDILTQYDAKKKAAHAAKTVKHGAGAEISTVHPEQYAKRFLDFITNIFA"}, "MEK2": {"molecular_target": "T8, MEK2 (Homo sapiens, UniProt P36507)", "T8 construct": "purchased Eurofins DiscoverX KINOMEscan"}, "MST1": {"molecular_target": "T9, MST1 (Homo sapiens, UniProt Q13043)", "T9 construct": "purchased Eurofins DiscoverX KINOMEscan", "T9 sequence (Q13043 1-487)": "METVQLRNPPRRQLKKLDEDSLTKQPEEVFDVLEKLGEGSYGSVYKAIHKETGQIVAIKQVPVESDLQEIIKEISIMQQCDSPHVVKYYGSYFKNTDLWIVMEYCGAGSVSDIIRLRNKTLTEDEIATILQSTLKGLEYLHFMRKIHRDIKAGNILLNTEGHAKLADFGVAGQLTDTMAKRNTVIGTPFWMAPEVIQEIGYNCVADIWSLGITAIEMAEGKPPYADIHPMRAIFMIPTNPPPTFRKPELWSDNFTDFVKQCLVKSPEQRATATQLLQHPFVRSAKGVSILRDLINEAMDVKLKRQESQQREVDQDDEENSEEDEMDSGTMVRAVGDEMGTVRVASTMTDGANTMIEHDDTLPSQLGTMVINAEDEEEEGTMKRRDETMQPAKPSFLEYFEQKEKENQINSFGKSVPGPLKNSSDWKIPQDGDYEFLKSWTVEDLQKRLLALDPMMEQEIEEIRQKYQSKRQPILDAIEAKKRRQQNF"}, "EGFR(L747-T751del,Sins)": {"molecular_target": "T10, EGFR(L747-T751del,Sins) (Homo sapiens, UniProt P00533, DEL747-750/T751S)", "T10 construct": "purchased Eurofins DiscoverX KINOMEscan", "T10 sequence (P00533 with tags, fused parts or gaps DEL747-750/T751S limits assumed)": "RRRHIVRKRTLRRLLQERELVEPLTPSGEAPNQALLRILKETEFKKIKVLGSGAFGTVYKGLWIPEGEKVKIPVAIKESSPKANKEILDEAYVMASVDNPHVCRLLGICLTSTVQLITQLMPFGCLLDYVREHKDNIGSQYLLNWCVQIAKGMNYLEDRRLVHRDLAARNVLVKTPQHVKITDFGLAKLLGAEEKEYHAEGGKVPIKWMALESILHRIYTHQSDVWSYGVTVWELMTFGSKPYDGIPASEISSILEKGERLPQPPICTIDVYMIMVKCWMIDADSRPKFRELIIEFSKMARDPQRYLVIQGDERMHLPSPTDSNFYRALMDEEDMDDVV"}, "MAPKAPK2": {"molecular_target": "T11, MAPKAPK2 (Homo sapiens, UniProt P49137)", "T11 construct": "purchased Eurofins DiscoverX KINOMEscan"}, "PIM3": {"molecular_target": "T12, PIM3 (Homo sapiens, UniProt Q86V86)", "T12 construct": "purchased Eurofins DiscoverX KINOMEscan"}}, "data": [{"smiles": "Clc1cc(NCC2CC2)c2ncc(-c3ccc4[nH]ncc4c3)n2n1", "note": "[compound 2, 6-Chloro-N-(cyclopropylmethyl)-3-(1H-indazol-5-yl)imidazo[1,2-b]pyridazin-8-amine]", "values": [{"measurement": "remaining binding at 1 µM", "setting": "SRC", "result": 100, "unit": "%"}, {"measurement": "remaining binding at 1 µM", "setting": "CLK2", "result": 9.6, "unit": "%"}, {"measurement": "remaining binding at 1 µM", "setting": "GCN2(Kin.Dom.2,S808G)", "result": 93, "unit": "%"}, {"measurement": "remaining binding at 1 µM", "setting": "GRK1", "result": 100, "unit": "%"}, {"measurement": "remaining binding at 1 µM", "setting": "PRKCD", "result": 93, "unit": "%"}, {"measurement": "remaining binding at 1 µM", "setting": "[1]", "result": 87, "unit": "%"}, {"measurement": "remaining binding at 1 µM", "setting": "PIP5K2C", "result": 67, "unit": "%"}, {"measurement": "remaining binding at 1 µM", "setting": "MEK2", "result": 92, "unit": "%"}, {"measurement": "remaining binding at 1 µM", "setting": "MST1", "result": 100, "unit": "%"}, {"measurement": "remaining binding at 1 µM", "setting": "EGFR(L747-T751del,Sins)", "result": 88, "unit": "%"}, {"measurement": "remaining binding at 1 µM", "setting": "MAPKAPK2", "result": 92, "unit": "%"}, {"measurement": "remaining binding at 1 µM", "setting": "PIM3", "result": 95, "unit": "%"}]}, {"smiles": "O=C(CN1CCOCC1)N[C@H]1CC[C@H](Nc2cc(Cl)nn3c(-c4ccc5[nH]ncc5c4)cnc23)CC1", "note": "[compound 26]", "values": [{"measurement": "remaining binding at 1 µM", "setting": "SRC", "result": 100, "unit": "%"}, {"measurement": "remaining binding at 1 µM", "setting": "CLK2", "result": 4.2, "unit": "%"}, {"measurement": "remaining binding at 1 µM", "setting": "GCN2(Kin.Dom.2,S808G)", "result": 97, "unit": "%"}, {"measurement": "remaining binding at 1 µM", "setting": "GRK1", "result": 80, "unit": "%"}, {"measurement": "remaining binding at 1 µM", "setting": "PRKCD", "result": 90, "unit": "%"}, {"measurement": "remaining binding at 1 µM", "setting": "[1]", "result": 83, "unit": "%"}, {"measurement": "remaining binding at 1 µM", "setting": "PIP5K2C", "result": 93, "unit": "%"}, {"measurement": "remaining binding at 1 µM", "setting": "MEK2", "result": 89, "unit": "%"}, {"measurement": "remaining binding at 1 µM", "setting": "MST1", "result": 100, "unit": "%"}, {"measurement": "remaining binding at 1 µM", "setting": "EGFR(L747-T751del,Sins)", "result": 96, "unit": "%"}, {"measurement": "remaining binding at 1 µM", "setting": "MAPKAPK2", "result": 100, "unit": "%"}, {"measurement": "remaining binding at 1 µM", "setting": "PIM3", "result": 71, "unit": "%"}]}, {"smiles": "CN1CCC(CNc2cc(Cl)nn3c(-c4cc5nc(Nc6ccccc6)[nH]c5cc4F)cnc23)CC1", "note": "[compound 31, 6-Chloro-3-(6-fluoro-2-(phenylamino)-1H-benzo[d]imidazol-5-yl)-N-((1-methylpiperidin-4-yl)methyl)imidazo[1,2-b]pyridazin-8-amine]", "values": [{"measurement": "remaining binding at 1 µM", "setting": "SRC", "result": 100, "unit": "%"}, {"measurement": "remaining binding at 1 µM", "setting": "CLK2", "result": 79, "unit": "%"}, {"measurement": "remaining binding at 1 µM", "setting": "GCN2(Kin.Dom.2,S808G)", "result": 77, "unit": "%"}, {"measurement": "remaining binding at 1 µM", "setting": "GRK1", "result": 82, "unit": "%"}, {"measurement": "remaining binding at 1 µM", "setting": "PRKCD", "result": 62, "unit": "%"}, {"measurement": "remaining binding at 1 µM", "setting": "[1]", "result": 81, "unit": "%"}, {"measurement": "remaining binding at 1 µM", "setting": "PIP5K2C", "result": 100, "unit": "%"}, {"measurement": "remaining binding at 1 µM", "setting": "MEK2", "result": 80, "unit": "%"}, {"measurement": "remaining binding at 1 µM", "setting": "MST1", "result": 95, "unit": "%"}, {"measurement": "remaining binding at 1 µM", "setting": "EGFR(L747-T751del,Sins)", "result": 92, "unit": "%"}, {"measurement": "remaining binding at 1 µM", "setting": "MAPKAPK2", "result": 100, "unit": "%"}, {"measurement": "remaining binding at 1 µM", "setting": "PIM3", "result": 92, "unit": "%"}]}]}
